The values below come from US5039791A, “Peptide fragments of tissue plasminogen activator” (Monsanto Company, priority 1989, dated 1991).

Entries after “also recorded” stand apart in the source; their conditions may differ. Where no end group is shown, it is not given here.

For test [1], the system named is human umbilical vein endothelial cells. Description: Endothelial cell binding assay: binding of [125I]-tPA to endothelial cells. The conditions noted are these: for inhibition of binding of tPA to endothelial cells (FIG. 3): 15 μg/ml peptide, about 20 ng/ml [125I]-tPA, 4° C., 90 minutes; for dose response of inhibition of binding of tPA to endothelial cells (FIG. 4): several peptide concentrations. As to the method:
Peptides from FIG. 1 were examined for their ability to inhibit the binding of [^125 I]-tPA to human umbilical vein endothelial cells. Assays were performed as described under Materials and Methods, below, using a final peptide concentration of 15 μg/ml. All samples were assayed in duplicate. Bar height represents the result obtained for one duplicate point and the corresponding error bar represents the result obtained for the other. Results are shown in percent inhibition of binding.
Assays examining the binding of [^125 I]-tPA to endothelial cells were performed by a conventional method essentially as described by Hajjar et al., J. Clin. Invest. 80, 1712-1719 (1987), and Beebe, Thromb. Res. 46, 241-254 (1987). Briefly, cells were grown to confluence in 24-well dishes using MCDB107 growth medium supplemented with 180 μg/ml heparin, 30 μg/ml ECGS, 100 μg/ml gentamicin and 10% fetal bovine serum. Immediately prior to assay, plates were chilled to 4° C. and all wells were aspirated. Cells were washed 3 times with binding buffer (PBS, pH 7.2, 5.0 mg/ml BSA, 10 mM glucose, 0.01% Tween 80). Five hundred μl of buffer containing approximately 20 ng/ml of [^125 I]-tPA and a test sample of peptide was then added. Incubations proceeded at 4° C. for 90 minutes. At the end of the incubation time, cells were washed rapidly 4 times with 500 μl aliquots of binding buffer. Cells were separated from the plates using 3% sodium dodecylsulfate (SDS) and the amount of radioactivity present was determined. Nonspecific binding was determined by carrying out incubations in the presence of an excess (2.0 μg/ml) of unlabeled tPA.
The peptides shown in Table 1 were examined for their effect on the binding of tPA to cultured human umbilical vein endothelial cells. […] All points were run in duplicate and nonspecific binding was subtracted in each case.

Another test concerns the target T1, fibrin (Homo sapiens, UniProt P02671+P02675+P02679).
T1 construct: purchased Kabi Vitrum
T1 sequence (P02671 20-644 isoform P02671-2 limits assumed): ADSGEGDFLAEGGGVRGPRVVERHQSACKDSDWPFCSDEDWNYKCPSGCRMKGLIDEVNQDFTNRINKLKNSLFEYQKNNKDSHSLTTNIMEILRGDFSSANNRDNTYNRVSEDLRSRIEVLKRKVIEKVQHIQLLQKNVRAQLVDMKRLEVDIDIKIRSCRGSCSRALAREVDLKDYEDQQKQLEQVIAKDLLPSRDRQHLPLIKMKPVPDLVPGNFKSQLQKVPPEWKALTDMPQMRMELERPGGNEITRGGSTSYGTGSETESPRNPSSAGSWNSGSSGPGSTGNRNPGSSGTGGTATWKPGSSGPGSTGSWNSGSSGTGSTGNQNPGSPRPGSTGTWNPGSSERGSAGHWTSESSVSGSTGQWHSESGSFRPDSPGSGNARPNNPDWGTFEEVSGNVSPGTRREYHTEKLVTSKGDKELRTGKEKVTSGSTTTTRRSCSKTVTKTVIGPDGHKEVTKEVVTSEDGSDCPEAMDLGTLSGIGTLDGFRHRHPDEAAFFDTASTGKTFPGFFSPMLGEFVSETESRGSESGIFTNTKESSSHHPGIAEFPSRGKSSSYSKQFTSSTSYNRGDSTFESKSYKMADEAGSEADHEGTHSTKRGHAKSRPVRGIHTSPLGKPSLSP
T1 sequence (P02675 45-491 limits assumed): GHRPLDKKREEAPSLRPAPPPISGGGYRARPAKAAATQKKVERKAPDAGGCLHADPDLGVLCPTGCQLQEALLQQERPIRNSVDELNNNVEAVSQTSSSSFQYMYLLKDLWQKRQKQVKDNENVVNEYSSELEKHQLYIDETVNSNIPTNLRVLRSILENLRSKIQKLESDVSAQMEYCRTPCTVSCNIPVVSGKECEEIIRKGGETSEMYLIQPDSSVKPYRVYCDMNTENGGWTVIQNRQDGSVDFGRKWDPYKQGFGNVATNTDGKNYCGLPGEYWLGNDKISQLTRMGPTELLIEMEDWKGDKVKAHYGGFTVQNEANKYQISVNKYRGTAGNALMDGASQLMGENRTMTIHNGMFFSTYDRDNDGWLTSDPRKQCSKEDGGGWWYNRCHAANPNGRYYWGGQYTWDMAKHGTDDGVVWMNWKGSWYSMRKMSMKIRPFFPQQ
T1 sequence (P02679 27-437 isoform P02679-2 limits assumed): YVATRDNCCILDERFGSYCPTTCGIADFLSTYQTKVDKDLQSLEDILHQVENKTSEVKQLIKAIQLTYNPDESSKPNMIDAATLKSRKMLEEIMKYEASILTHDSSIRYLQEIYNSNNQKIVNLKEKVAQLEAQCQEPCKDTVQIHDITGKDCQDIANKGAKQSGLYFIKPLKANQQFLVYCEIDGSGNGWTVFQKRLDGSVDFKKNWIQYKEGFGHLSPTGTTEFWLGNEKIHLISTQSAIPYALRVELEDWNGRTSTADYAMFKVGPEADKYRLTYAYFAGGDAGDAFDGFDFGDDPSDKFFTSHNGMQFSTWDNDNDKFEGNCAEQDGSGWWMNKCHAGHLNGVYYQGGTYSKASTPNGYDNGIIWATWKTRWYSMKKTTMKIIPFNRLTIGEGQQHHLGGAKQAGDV
Description: Fibrin binding: binding of tPA to fibrin, tPA antigen in supernatant by ELISA. Conditions: 15 μg/ml peptide; 200 ng/ml single chain melanoma tPA, 200 μg/ml human fibrinogen; no peptide = 48. As to the method:
Binding of tPA to fibrin was measured using the conventional method of Rijken et al., J. Biol. Chem. 257, 2920-2925 (1982). This method involves mixing thrombin with a solution containing tPA and fibrinogen, centrifuging the resulting clot and measuring the concentration of tPA antigen in the supernatant. In a final volume of 200 μl, the following were combined: 200 ng/ml single chain melanoma tPA, 200 μg/ml human fibrinogen, 15 μg/ml tPA peptide, 1.1 mg/ml bovine serum albumin, 0.55 mg/ml bovine gamma globulin and 10 mM ε-amino caproic acid in PBSAT. Controls omitted fibrinogen, peptide or both. Mixtures were clotted by the addition of 1 unit/ml bovine thrombin, incubated one hour at room temperature and centrifuged. tPA antigen in the supernatant was measured by conventional ELISA and the percentage bound calculated by difference using the antigen level of a control mixture with no fibrinogen as 0% bound. […] An ELISA assay kit for tPA and PAI-1 was purchased from American Diagnostica Inc. and assays were performed according to printed protocols supplied by the manufacturer with the kit except that a single lot of melanoma tPA from American Diagnostica Inc. (product 111, lot 47-01) was used as the antigen standard throughout this work and 5.0 mg/ml of BSA and 2.5 mg/ml of bovine gamma globulin were included in ELISA buffers.
In general terms: In an ELISA, binding on a coated surface is turned into a signal by an enzyme label.

For “VPVKSCSEPRCFNGGTCQQALYFSD-amide (VPVKSCSEPRCFNGGTCQQALYFSD-NH2; cysteine pairing not given here) [Peptide 148, 25 amino acid synthetic peptide amide fragment of native human tPA]”, in test [1], the “inhibition of binding of tPA to endothelial cells (FIG. 3)” value (from here on “inhibition of binding of tPA … (FIG. 3)”) is listed as “inhibited the binding of tPA to endothelial cells” and the “dose response of inhibition of binding of tPA to endothelial cells (FIG. 4)” value is recorded as “concentration dependent manner”. Also, the “% Bound (binding of tPA to fibrin)” value with fibrin is 50%.
Turning to “LGKHNYCRNPDGDAKPWCHVLKNRR-amide (LGKHNYCRNPDGDAKPWCHVLKNRR-NH2; cysteine pairing not given here) [Peptide 166, 25 amino acid synthetic peptide amide fragment of native human tPA]”, the “inhibition of binding of tPA … (FIG. 3)” value in test [1] is given as “effective at inhibiting the binding of tPA to cells”. Also, the “% Bound (binding of tPA to fibrin)” value in the test with fibrin was 57%.
Regarding “NPDRDSKPWCYVFKAGKYSSEFCST-amide (NPDRDSKPWCYVFKAGKYSSEFCST-NH2; cysteine pairing not given here) [Peptide 158, 25 amino acid synthetic peptide amide fragment of native human tPA]”, in test [1], the “inhibition of binding of tPA … (FIG. 3)” value was “inhibited the binding of tPA to endothelial cells; also recorded: more effective at inhibiting endothelial cell binding relative to the other active peptides” and the “dose response of inhibition of binding of tPA to endothelial cells (FIG. 4)” value was “concentration dependent manner”. In the test with fibrin, the “% Bound (binding of tPA to fibrin)” value was 53%.
